# According to PubChem BioAssay (NCI):
#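 All cell lines were grown in 96-well plates and treated with compound for 48 hours. GI50 is the concentration that inhibits growth by half. TGI is the concentration that stops growth completely.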
# Experiments:
# Test in all cases: NCI anticancer screen, dose series, 48 h
# 786-0 renal = tested on: 786-0 renal
# A498 renal = tested on: A498 renal
# A549 NSCLC = tested on: A549 NSCLC
# ACHN renal = tested on: ACHN renal
# BT-549 breast = tested on: BT-549 breast
# CAKI-1 renal = tested on: CAKI-1 renal
# CCRF-CEM leukemia = tested on: CCRF-CEM leukemia
# COLO 205 colon = tested on: COLO 205 colon
# DU-145 prostate = tested on: DU-145 prostate
# EKVX NSCLC = tested on: EKVX NSCLC
# HCC-2998 colon = tested on: HCC-2998 colon
# HCT-116 colon = tested on: HCT-116 colon
# HCT-15 colon = tested on: HCT-15 colon
# HL-60(TB) leukemia = tested on: HL-60(TB) leukemia
# HOP-62 NSCLC = tested on: HOP-62 NSCLC
# HOP-92 NSCLC = tested on: HOP-92 NSCLC
# HS 578T breast = tested on: HS 578T breast
# HT29 colon = tested on: HT29 colon
# IGROV1 ovarian = tested on: IGROV1 ovarian
# K-562 leukemia = tested on: K-562 leukemia
# KM12 colon = tested on: KM12 colon
# LOX IMVI melanoma = tested on: LOX IMVI melanoma
# M14 melanoma = tested on: M14 melanoma
# MCF7 breast = tested on: MCF7 breast
# MDA-MB-231 breast = tested on: MDA-MB-231 breast
# MDA-MB-435 = tested on: MDA-MB-435
# MOLT-4 leukemia = tested on: MOLT-4 leukemia
# NCI-H226 lung = tested on: NCI-H226 lung
# NCI-H460 lung = tested on: NCI-H460 lung
# NCI-H522 lung = tested on: NCI-H522 lung
# NCI/ADR-RES ovarian = tested on: NCI/ADR-RES ovarian
# OVCAR-3 ovarian = tested on: OVCAR-3 ovarian
# OVCAR-4 ovarian = tested on: OVCAR-4 ovarian
# OVCAR-5 ovarian = tested on: OVCAR-5 ovarian
# OVCAR-8 ovarian = tested on: OVCAR-8 ovarian
# PC-3 prostate = tested on: PC-3 prostate
# RPMI-8226 leukemia = tested on: RPMI-8226 leukemia
# RXF 393 renal = tested on: RXF 393 renal
# SF-268 CNS = tested on: SF-268 CNS
# SF-295 CNS = tested on: SF-295 CNS
# SF-539 CNS = tested on: SF-539 CNS
# SK-MEL-2 melanoma = tested on: SK-MEL-2 melanoma
# SK-MEL-28 melanoma = tested on: SK-MEL-28 melanoma
# SK-MEL-5 melanoma = tested on: SK-MEL-5 melanoma
# SK-OV-3 ovarian = tested on: SK-OV-3 ovarian
# SN12C renal = tested on: SN12C renal
# SNB-19 CNS = tested on: SNB-19 CNS
# SNB-75 CNS = tested on: SNB-75 CNS
# SW-620 colon = tested on: SW-620 colon
# T-47D breast = tested on: T-47D breast
# TK-10 renal = tested on: TK-10 renal
# U251 CNS = tested on: U251 CNS
# UACC-257 melanoma = tested on: UACC-257 melanoma
# UACC-62 melanoma = tested on: UACC-62 melanoma
# UO-31 renal = tested on: UO-31 renal
compound,measurement,setting,value
Cc1nc2ccccn2c1NC(=O)NN1C(=O)CSC1c1ccc(Cl)cc1 (centres undefined),GI50,786-0 renal,> 100 µM
same,TGI,786-0 renal,> 100 µM
same,GI50,A498 renal,> 100 µM
same,TGI,A498 renal,> 100 µM
same,GI50,A549 NSCLC,> 100 µM
same,TGI,A549 NSCLC,> 100 µM
same,GI50,ACHN renal,> 100 µM
same,TGI,ACHN renal,> 100 µM
same,GI50,BT-549 breast,> 100 µM
same,TGI,BT-549 breast,> 100 µM
same,GI50,CAKI-1 renal,> 100 µM
same,TGI,CAKI-1 renal,> 100 µM
same,TGI,CCRF-CEM leukemia,0.012 µM
same,GI50,COLO 205 colon,> 100 µM
same,TGI,COLO 205 colon,> 100 µM
same,GI50,DU-145 prostate,> 100 µM
same,TGI,DU-145 prostate,> 100 µM
same,GI50,EKVX NSCLC,> 100 µM
same,TGI,EKVX NSCLC,> 100 µM
same,GI50,HCC-2998 colon,> 100 µM
same,TGI,HCC-2998 colon,> 100 µM
same,GI50,HCT-116 colon,> 100 µM
same,TGI,HCT-116 colon,> 100 µM
same,GI50,HCT-15 colon,> 100 µM
same,TGI,HCT-15 colon,> 100 µM
same,GI50,HL-60(TB) leukemia,> 100 µM
same,TGI,HL-60(TB) leukemia,> 100 µM
same,GI50,HOP-62 NSCLC,> 100 µM
same,TGI,HOP-62 NSCLC,> 100 µM
same,GI50,HOP-92 NSCLC,> 100 µM
same,TGI,HOP-92 NSCLC,> 100 µM
same,GI50,HS 578T breast,> 100 µM
same,TGI,HS 578T breast,> 100 µM
same,GI50,HT29 colon,> 100 µM
same,TGI,HT29 colon,> 100 µM
same,GI50,IGROV1 ovarian,> 100 µM
same,TGI,IGROV1 ovarian,> 100 µM
same,GI50,K-562 leukemia,> 100 µM
same,TGI,K-562 leukemia,> 100 µM
same,GI50,KM12 colon,> 100 µM
same,TGI,KM12 colon,> 100 µM
same,GI50,LOX IMVI melanoma,> 100 µM
same,TGI,LOX IMVI melanoma,> 100 µM
same,GI50,M14 melanoma,> 100 µM
same,TGI,M14 melanoma,> 100 µM
same,GI50,MCF7 breast,> 100 µM
same,TGI,MCF7 breast,> 100 µM
same,GI50,MDA-MB-231 breast,> 100 µM
same,TGI,MDA-MB-231 breast,> 100 µM
same,GI50,MDA-MB-435,> 100 µM
same,TGI,MDA-MB-435,> 100 µM
same,GI50,MOLT-4 leukemia,> 100 µM
same,TGI,MOLT-4 leukemia,> 100 µM
same,GI50,NCI-H226 lung,> 100 µM
same,TGI,NCI-H226 lung,> 100 µM
same,GI50,NCI-H460 lung,> 100 µM
same,TGI,NCI-H460 lung,> 100 µM
same,GI50,NCI-H522 lung,> 100 µM
same,TGI,NCI-H522 lung,> 100 µM
same,GI50,NCI/ADR-RES ovarian,> 100 µM
same,TGI,NCI/ADR-RES ovarian,> 100 µM
same,GI50,OVCAR-3 ovarian,> 100 µM
same,TGI,OVCAR-3 ovarian,> 100 µM
same,GI50,OVCAR-4 ovarian,> 100 µM
same,TGI,OVCAR-4 ovarian,> 100 µM
same,GI50,OVCAR-5 ovarian,> 100 µM
same,TGI,OVCAR-5 ovarian,> 100 µM
same,GI50,OVCAR-8 ovarian,> 100 µM
same,TGI,OVCAR-8 ovarian,> 100 µM
same,GI50,PC-3 prostate,> 100 µM
same,TGI,PC-3 prostate,> 100 µM
same,GI50,RPMI-8226 leukemia,> 100 µM
same,TGI,RPMI-8226 leukemia,> 100 µM
same,GI50,RXF 393 renal,> 100 µM
same,TGI,RXF 393 renal,> 100 µM
same,GI50,SF-268 CNS,> 100 µM
same,TGI,SF-268 CNS,> 100 µM
same,GI50,SF-295 CNS,> 100 µM
same,TGI,SF-295 CNS,> 100 µM
same,GI50,SF-539 CNS,> 100 µM
same,TGI,SF-539 CNS,> 100 µM
same,GI50,SK-MEL-2 melanoma,> 100 µM
same,TGI,SK-MEL-2 melanoma,> 100 µM
same,GI50,SK-MEL-28 melanoma,> 100 µM
same,TGI,SK-MEL-28 melanoma,> 100 µM
same,GI50,SK-MEL-5 melanoma,> 100 µM
same,TGI,SK-MEL-5 melanoma,> 100 µM
same,GI50,SK-OV-3 ovarian,> 100 µM
same,TGI,SK-OV-3 ovarian,> 100 µM
same,GI50,SN12C renal,> 100 µM
same,TGI,SN12C renal,> 100 µM
same,GI50,SNB-19 CNS,> 100 µM
same,TGI,SNB-19 CNS,> 100 µM
same,GI50,SNB-75 CNS,> 100 µM
same,TGI,SNB-75 CNS,> 100 µM
same,GI50,SW-620 colon,> 100 µM
same,TGI,SW-620 colon,> 100 µM
same,GI50,T-47D breast,> 100 µM
same,TGI,T-47D breast,> 100 µM
same,GI50,TK-10 renal,> 100 µM
same,TGI,TK-10 renal,> 100 µM
same,GI50,U251 CNS,> 100 µM
same,TGI,U251 CNS,> 100 µM
same,GI50,UACC-257 melanoma,> 100 µM
same,TGI,UACC-257 melanoma,> 100 µM
same,GI50,UACC-62 melanoma,> 100 µM
same,TGI,UACC-62 melanoma,> 100 µM
same,GI50,UO-31 renal,> 100 µM
same,TGI,UO-31 renal,> 100 µM
